Test results reported in patent publication US9371336B2, “Compounds for treating spinal muscular atrophy” (PTC Therapeutics Inc., priority 2012, dated 2016).

How the values were obtained:
[1] = system: SMN2 minigene mRNA (SMN2-A minigene construct); assay: SMN2 minigene mRNA splicing RT-qPCR assay in cultured cells; assay type: cell-based, human; conditions: for inclusion of exon 7 of SMN2 into mRNA / SMN2 minigene FL mRNA relative to vehicle control: HEK293H cells with SMN2-A minigene, 24 hr; for inclusion of exon 7 of SMN2 into mRNA: relative to untreated cells (FIG. 3); for SMN2 minigene FL mRNA relative to vehicle control: rising concentrations, RT-qPCR (FIG. 3); for EC (1.5-fold): Homo sapiens, HEK293-H, HEK293H cells stably transfected with SMN2-A minigene, 24 hours, 7-point concentration data, concentration giving 1.5-fold SMN2 full length mRNA relative to vehicle-treated cells, read-out: EC1.5x for production of full length SMN2 mRNA
Outline: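 Full-length SMN2 minigene mRNA, measured by exon 7/luciferase-specific RT-qPCR that excludes endogenous SMN1/SMN2, was normalized to GAPDH and expressed relative to vehicle-treated cells via modified ΔΔCt. Stably transfected HEK293H cells received compound (7-point, 3.16-fold series, duplicates) for 24 h at 37 °C.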

[2] = system: SMN2 full length and Δ7 mRNA; assay: Endogenous SMN2 mRNA end-point semi-quantitative RT-PCR splicing assay in cultured cells (GM03813); assay type: cell-based, human; conditions: Type 1 SMA patient fibroblasts GM03813, increasing concentrations, 24 hr, agarose gel (FIG. 5)
Procedure: The endpoint reverse transcription-PCR splicing assay is used to visualize and quantify the levels of the SMN2 full length and Δ7 mRNA in primary cells and cell lines containing the SMN2 gene treated with a test compound.
GM03813 SMA patient cells (5,000 cells/well) are seeded in 200 μL of cell culture medium (DMEM plus 10% FBS) in 96-well flat-bottom plates and the plate is immediately swirled to ensure proper dispersal of cells, forming an even monolayer of cells. Cells are allowed to attach for at least 4-6 hrs. Test compounds are serially diluted 3.16-fold in 100% DMSO to generate a 7-point concentration curve. A solution of test compound (1 μL, 200× in DMSO) is added to each test well and 1 μL DMSO is added to each control well. The plate is incubated for 24 hrs in a cell culture incubator (37° C., 5% CO2, 100% relative humidity). The cells are then lysed in Cells-To-Ct lysis buffer and the lysate is stored at 80° C.
SMN FL and Δ7 mRNA are identified using the following primers in Table 6. These primers hybridize to a nucleotide sequence in exon 6 (SMN Forward C, SEQ ID NO. 11) (nucleotide 43 to nucleotide 63) and exon 8 (SMN Reverse C, SEQ ID NO. 12) (nucleotide 51 to nucleotide 73) common to human SMN1 and SMN2 mRNA. Since the SMA patient cells used in Example 4 contain only the SMN2 gene, RT-PCR can visualize and quantify only SMN2 full-length and SMN2 Δ7 mRNA.
To synthesize cDNA, 5 μL of lysate, 4 μL of 5× iScript reaction mix, 1 μL of reverse transcriptase, and 10 μL of water are combined and incubated 5 min at 25° C. followed by 30 min at 42° C., followed by 5 min at 85° C. The cDNA solution is stored at −20° C.
To perform endpoint PCR, 5 μL of cDNA, 0.2 μL of 100 μM forward primer, 0.2 μL of 100 μM reverse primer, and 22.5 μL of polymerase super mix are combined in a 96 well semiskirted PCR plate. PCR is carried out at the following temperatures for the indicated time: Step 1: 94° C. (2 min), Step 2: 94° C. (30 sec), Step 3: 55° C. (30 sec), Step 4: 68° C. (1 min), then repeat Steps 2 to 4 for a total of 33 cycles, then hold at 4° C.
10 μL of each PCR sample is electrophoretically separated on a 2% agarose E-gel for 14 minutes stained with double-stranded DNA (dsDNA) staining reagents (e.g., ethidium bromide) and visualized using a gel imager.

Structure (SMILES)	inclusion of exon 7 of SMN2 into mRNA [1]	SMN2 minigene FL mRNA relative to vehicle control [1]	EC (1.5-fold) [1] [µM]	melting point [°C]	SMN2 FL mRNA (gel band) [2]	SMN2 Δ7 mRNA (gel band) [2]
Cc1ccc2nc(-c3cc4ccc(N5CCN(C)CC5)nc4oc3=O)cn2c1 [Cpd 27, 3-(6-methylimidazo[1,2-a]pyridin-2-yl)-7-(4-methylpiperazin-1-yl)-2H-pyrano[2,3-b]pyridin-2-one]	fully restored exon 7 inclusion	increased SMN2 minigene FL mRNA at low concentrations	0.1 to 0.3	260 to 264	progressively more SMN2 FL mRNA	less SMN2 Δ7 mRNA
CN1CCN(c2ccc3cc(-c4nc5c(Cl)cccc5s4)c(=O)oc3n2)CC1 [Cpd 5, 3-(4-chloro-1,3-benzothiazol-2-yl)-7-(4-methylpiperazin-1-yl)-2H-pyrano[2,3-b]pyridin-2-one]	fully restored exon 7 inclusion	increased SMN2 minigene FL mRNA at low concentrations	0.1 to 0.3	258 to 260	progressively more SMN2 FL mRNA	less SMN2 Δ7 mRNA
